Laboratory results as given in US11939319B2, “Pyridinyl and pyrazinyl-(asa)indolsulfonamides” (UCB Pharma GmbH, priority 2018, dated 2024).

Legend:
[1] = biological target: T1, GPR17 (Homo sapiens, UniProt Q13304); assay: Calcium mobilization functional assay (Ca2+ assay) in CHO hGPR17 cells; format: cell-based; design: host or cells: Flp-In T-REx CHO cells, expression induced with doxycycline; details: inhibition of 50 nM MDL29,951 (GPR17 agonist), activity range, read-out: Ca^2+ assay pIC50 (converted)
Protocol: (§1) Flp-In T-REx CHO cells stably expressing human GPR17 receptor (CHO hGPR17) from Evi Kostenis' lab (Bonn University, Germany) were cultured at 37° C. in a humidified atmosphere of 5% CO2. Cells were grown in DMEM with Nutrient Mixture F-12 supplemented with hygromycin B (500 μg/ml) and blasticidin (30 μg/ml). Expression from the Flp-In locus was induced by treatment with doxycycline (1 μg/ml) for 16-20 h prior assays.
GPR17 is a G-protein coupled receptor. GPR17 activation triggers Gq-type G-protein signaling resulting in endoplasmic reticulum calcium (Ca^2+) stores release in cytosol which can be measured using Calcium 5 dye, a fluorescent indicator dye of cytosolic Ca^2+ levels. The compounds of the present invention were assessed either in the Ca^2+ assay or in the GPR17 cAMP assay, described further below.
CHO hGPR17 were defrosted and seeded at a density of 20,000 cells per well into black 384-well plates with clear bottom. Cells were incubated overnight at 37° C. in a humidified atmosphere of 5% CO2. Sixteen to twenty hours after seeding, CHO hGPR17 were loaded for 60 min with Calcium 5 dye, a cytosolic Ca^2+ indicator fluorescent dye, according to manufacturer's instructions. Fluorescent signal relative to cytosolic Ca^2+ concentration was recorded over time at room temperature in FLIPR Tetra reader. Cells were first incubated for 30 minutes at room temperature in HBSS Hepes buffer pH 7.4 containing increasing concentrations of test compounds (typically 10^−11 M to 10^−6M). Then, 50 nM MDL29,951, a GPR17 agonist, was added to the cells. Inhibitory effects of varying concentrations test compounds were measured and resulting pIC50S were determined. All incubations were performed in duplicate and results were compared to a concentration response curve of GPR17 agonist and antagonist reference compounds. Analysis and curve fitting were performed in ActivityBase XE using XLfit 4-parameter logistic equation y=A+((B−A)/(1+((C/x)^D))) where A, B, C and D stand for minimum y, maximum y, IC50 and slope, respectively.
The activities of the Example compounds tested are depicted in the table 6 in Section B-IIB below. The activity ranges A, B and C refer to pIC50 values in the Ca^2+ assay as follows: “A”: pIC50 6.5≤x<7.5, “B”: pIC50 7.5≤x<8.5, “C”: 8.5≤pIC50
Target sequence in this assay (Q13304 29-367 limits assumed): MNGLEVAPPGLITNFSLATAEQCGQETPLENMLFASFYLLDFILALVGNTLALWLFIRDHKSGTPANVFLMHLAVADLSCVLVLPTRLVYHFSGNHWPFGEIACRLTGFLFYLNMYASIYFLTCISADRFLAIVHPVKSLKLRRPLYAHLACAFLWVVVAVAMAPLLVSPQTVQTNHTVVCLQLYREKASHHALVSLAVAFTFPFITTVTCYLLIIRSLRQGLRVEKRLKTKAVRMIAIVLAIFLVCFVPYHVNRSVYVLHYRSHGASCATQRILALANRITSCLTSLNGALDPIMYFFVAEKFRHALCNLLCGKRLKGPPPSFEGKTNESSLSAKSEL

[2] = biological target: T1, GPR17; assay: cAMP accumulation functional assay (HTRF) in CHO hGPR17 cells; format: cell-based; design: host or cells: Flp-In T-REx CHO cells, expression induced with doxycycline; details: Schild analysis against MDL29,951, 5 μM forskolin, activity range, read-out: cAMP assay pA2 (converted)
Protocol: as §1
Target sequence in this assay (Q13304 29-367 limits assumed): as above
GPR17 activation can also recruit Gi-type G-protein signaling, resulting in a decrease of intracellular cyclic adenosine monophosphate (cAMP). Intracellular cAMP changes can be measured using the HTRF cAMP dynamic assay kit from CisBio (Codolet, France). Using homogenous time-resolved fluorescence technology (HTRF), the assay is based on competition between native cAMP produced by cells and cAMP labelled with the dye d2. The tracer binding was determined by an anti-cAMP antibody labeled with cryptate.
CHO hGPR17 were detached with PBS containing EDTA and dispatched in black 384-well plates with 5,000 cells per well. Cells were first incubated for 30 minutes at room temperature in HBSS Hepes (pH 7.4) containing vehicle or varying concentrations of test GPR17 antagonist/inverse agonist compounds. Then, a dose response curve of MDL29,951 GPR17 agonist (typically from 10^−5M to 10^−10M) was added on vehicle and on each test GPR17 antagonist/inverse agonist compound concentration in a final volume of 20 μL HBSS Hepes buffer (pH 7.4) containing 1% DMSO, 5 μM forskolin and 0.1 mM IBMX. After 60 minutes incubation at room temperature, the reaction is terminated and the cells lysed by adding the d2 detection reagent and the cryptate reagent in 10 μL lysis buffer each according to manufacturer's instructions. After 60 minutes incubation, changes in cAMP concentrations are measured according to manufacturer's instructions using an Envision plate reader with laser excitation. All incubations were performed in duplicate. Data was analyzed using GraphPad Prism software using the 4-parameter logistic equation to measure MDL29,951 pEC50s in absence and presence of GPR17 antagonist/inverse agonist test compounds. Dose ratio (DR) were plotted against antagonist concentrations and Schild analysis provided estimated affinity pA2 of GPR17 antagonist/inverse agonist test compounds.
The activities of the Example compounds tested are depicted in the table below. The activity ranges A, B and C refer to pA2 values in the cAMP assay as follows: “A”: pA2 6.5≤x<7.5, “B”: pA2 7.5≤x<8.5, “C”: 8.5≤pA2.

[3] = biological target: T1, GPR17; details: WO 2005/103291; cited from earlier work
Target sequence in this assay (Q13304 whole entry, species assumed): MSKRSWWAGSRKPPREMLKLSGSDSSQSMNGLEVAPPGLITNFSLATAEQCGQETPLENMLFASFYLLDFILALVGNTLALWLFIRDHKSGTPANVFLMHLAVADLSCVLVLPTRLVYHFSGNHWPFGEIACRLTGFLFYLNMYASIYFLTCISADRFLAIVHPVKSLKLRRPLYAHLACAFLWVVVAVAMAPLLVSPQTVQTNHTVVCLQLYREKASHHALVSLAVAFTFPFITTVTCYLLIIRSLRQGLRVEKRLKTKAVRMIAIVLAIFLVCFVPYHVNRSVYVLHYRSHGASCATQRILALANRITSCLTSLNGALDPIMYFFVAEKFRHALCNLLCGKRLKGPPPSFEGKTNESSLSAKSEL

## COc1nc(OC)c(NS(=O)(=O)c2c[nH]c3nc(Cl)ccc23)cc1F [Example I-34, 6-chloro-N-(5-fluoro-2,6-dimethoxypyridin-3-yl)-1H-pyrrolo[2,3-b]pyridine-3-sulfonamide]
[1]
  IC50: 3.16 to 31.6 nM
[2]
  Kb: 3.16 to 31.6 nM

## O=S(=O)(Nc1cnc(Br)cn1)c1c[nH]c2cc(Cl)ccc12 [Example I-18, N-(5-bromopyrazin-2-yl)-6-chloro-1H-indole-3-sulfonamide]
[1]
  IC50: 31.6 to 316 nM
[2]
  Kb: 31.6 to 316 nM

## COc1nc(F)c(NS(=O)(=O)c2c[nH]c3cc(Cl)ccc23)cc1F [Example I-5, 6-chloro-N-(2,5-difluoro-6-methoxypyridin-3-yl)-1H-indole-3-sulfonamide]
[1]
  IC50: 3.16 to 31.6 nM
[2]
  Kb: 3.16 to 31.6 nM

## COc1nc(Br)cnc1NS(=O)(=O)c1c[nH]c2cc(Cl)ccc12 [Example I-10, N-(5-bromo-3-methoxypyrazin-2-yl)-6-chloro-1H-indole-3-sulfonamide]
[1]
  IC50: ≤ 3.16 nM
[2]
  Kb: ≤ 3.16 nM

## O=S(=O)(Nc1ccc(I)nc1)c1c[nH]c2cc(Cl)ccc12 [Example I-21, 6-chloro-N-(6-iodopyridin-3-yl)-1H-indole-3-sulfonamide]
[1]
  IC50: 31.6 to 316 nM
[2]
  Kb: 3.16 to 31.6 nM

## COc1nc(OC)c(NS(=O)(=O)c2c[nH]c3cc(Cl)ccc23)cc1F [Example I-6, 6-chloro-N-(5-fluoro-2,6-dimethoxypyridin-3-yl)-1H-indole-3-sulfonamide]
[1]
  IC50: ≤ 3.16 nM
[2]
  Kb: ≤ 3.16 nM

## NCc1[nH]cc(CCC(=O)O)c1CC(=O)O [PBG, porphobilinogen]
[3]
  amounts needed in the assays (GPR17 activating ligand): mM range

## COc1nc(Cl)c(F)cc1NS(=O)(=O)c1c[nH]c2nc(Cl)ccc12 [Example I-32, 6-chloro-N-(6-chloro-5-fluoro-2-methoxypyridin-3-yl)-1H-pyrrolo[2,3-b]pyridine-3-sulfonamide]
[1]
  IC50: ≤ 3.16 nM
[2]
  Kb: ≤ 3.16 nM

## O=S(=O)(Nc1cc(F)c(Cl)nc1F)c1c[nH]c2cc(Cl)ccc12 [Example I-2, 6-chloro-N-(6-chloro-2,5-difluoropyridin-3-yl)-1H-indole-3-sulfonamide]
[1]
  IC50: ≤ 3.16 nM
[2]
  Kb: 3.16 to 31.6 nM

## NCC(=O)CCC(=O)O [Example 5-ALA, 5 amino levulinic acid]
[3]
  amounts needed in the assays (GPR17 activating ligand): three digit micromolar range

## O=S(=O)(Nc1cnc(Cl)cc1F)c1c[nH]c2cc(Cl)ccc12 [Example I-25, 6-chloro-N-(6-chloro-4-fluoropyridin-3-yl)-1H-indole-3-sulfonamide]
[1]
  IC50: 3.16 to 31.6 nM
[2]
  Kb: ≤ 3.16 nM

## COc1nc(F)c(NS(=O)(=O)c2c[nH]c3nc(Cl)ccc23)cc1F [Example I-33, 6-chloro-N-(2,5-difluoro-6-methoxypyridin-3-yl)-1H-pyrrolo[2,3-b]pyridine-3-sulfonamide]
[1]
  IC50: 31.6 to 316 nM
[2]
  Kb: 31.6 to 316 nM
